Source: a compilation of properties of binary mixtures (doi:10.1016/j.fluid.2019.112447)

Assay: xn = mol fraction of the nth substance listed
Conditions: 101 kPa

CCOS(=O)(=O)[O-].CC[n+]1ccn(C)c1 + CCC(C)O
viscosity [mPa·s]
Conditions | x1 = 0.1032 | x1 = 0.2027 | x1 = 0.2937 | x1 = 0.3936 | x1 = 0.4906 | x1 = 0.5916 | x1 = 0.6944 | x1 = 0.7957 | x1 = 0.8916 | x1 = 1
298.15 K | 4.62 | – | 9.73 | 14.02 | 19.79 | 28.15 | – | – | 71.7 | 96.2
303.15 K | 4.29 | – | 9.16 | 12.67 | – | 24 | 33 | 44 | – | 75.9
308.15 K | 3.46 | 5.31 | 7.53 | – | 14.29 | 20.49 | 27.81 | 36.7 | – | 60.7
313.15 K | 2.94 | – | 6.51 | – | 13.06 | – | 23.65 | 30.7 | 38.7 | –
318.15 K | 2.56 | – | 5.76 | 8.37 | 11.43 | 15.38 | 20.32 | 26.1 | 32.5 | 40.9
323.15 K | 2.03 | 3.36 | – | 7.36 | 10.09 | 13.57 | 17.64 | 22.35 | 27.4 | 33.8

CC[n+]1ccn(C)c1.O=S(=O)([O-])C(F)(F)F + CCC(C)O
viscosity [mPa·s]
Conditions | x1 = 0.1092 | x1 = 0.1945 | x1 = 0.2945 | x1 = 0.3938 | x1 = 0.4988 | x1 = 0.5952 | x1 = 0.6907 | x1 = 0.7986 | x1 = 0.903 | x1 = 1
298.15 K | 3.95 | 5.32 | 6.57 | 7.9 | 10.59 | 15.33 | 22.63 | – | 39.43 | –
303.15 K | 3.47 | 4.65 | 5.76 | – | – | – | 19.37 | – | 33.21 | 38.31
308.15 K | 3.09 | 4.1 | 5.07 | – | 8.23 | 11.65 | 16.75 | 22.22 | – | 32.28
313.15 K | 2.75 | – | 4.51 | 5.5 | – | – | – | 19.09 | 24.05 | –
318.15 K | 2.46 | 3.24 | 4.03 | 4.94 | – | 9.13 | 12.84 | 16.7 | – | 23.86
323.15 K | 2.21 | 2.9 | 3.61 | 4.44 | 5.91 | 8.17 | – | 14.66 | – | 20.75

CCC(C)O (centres undefined) + CCOS(=O)(=O)[O-].CC[n+]1ccn(C)c1
x2 = 0
Conditions | viscosity [mPa·s]
298.15 K | 2.58
303.15 K | 2.27
313.15 K | 1.77
318.15 K | 1.58
323.15 K | 1.41

CCC(C)O (centres undefined) + CC[n+]1ccn(C)c1.O=S(=O)([O-])C(F)(F)F
x2 = 0
Conditions | viscosity [mPa·s]
298.15 K | 2.58
303.15 K | 2.27
313.15 K | 1.77
318.15 K | 1.58
323.15 K | 1.41
